US9062041B2 (Bayer Intellectual Property GmbH, priority 2011, dated 2015)

Key:
Type in all cases: cell-based
[1] = target: T1, human PGD receptor (Homo sapiens, UniProt Q13258); assay: cAMP antagonism test on the human prostaglandin D receptor (HTRF cAMP detection); details: selectivity towards hDP, IC50 measured by cAMP antagonism test
T1 sequence (Q13258 1-359): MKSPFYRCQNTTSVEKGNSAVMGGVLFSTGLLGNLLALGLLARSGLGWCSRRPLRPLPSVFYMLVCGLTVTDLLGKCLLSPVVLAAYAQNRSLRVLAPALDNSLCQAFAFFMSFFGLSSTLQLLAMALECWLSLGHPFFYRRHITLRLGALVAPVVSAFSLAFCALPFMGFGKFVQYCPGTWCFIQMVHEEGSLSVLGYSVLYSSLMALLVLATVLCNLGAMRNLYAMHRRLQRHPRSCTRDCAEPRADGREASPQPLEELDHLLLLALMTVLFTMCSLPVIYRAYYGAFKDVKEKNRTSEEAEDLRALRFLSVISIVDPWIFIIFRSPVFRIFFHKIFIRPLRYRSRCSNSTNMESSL
Summary of the method: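 HTRF competition read-out (665/620 nm ratio ×10000), where higher FRET means less cAMP, i.e. antagonism. Compounds (0.8 nM–16.5 μM) were preincubated 20 min at RT with cells and cAMP-d2, PGD2 (3× solution, 6 nM) in IBMX-containing PBS added for 30 min at RT, then cells lysed 20 min.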

[2] = target: EP4 subtype of the human PGE2 receptor (Homo sapiens, UniProt P35408); assay: cAMP antagonism test on the human EP4 receptor (HTRF cAMP detection); details: selectivity towards hEP4, IC50 measured by cAMP antagonism test
EP4 subtype of the human PGE2 receptor, sequence (P35408 whole entry): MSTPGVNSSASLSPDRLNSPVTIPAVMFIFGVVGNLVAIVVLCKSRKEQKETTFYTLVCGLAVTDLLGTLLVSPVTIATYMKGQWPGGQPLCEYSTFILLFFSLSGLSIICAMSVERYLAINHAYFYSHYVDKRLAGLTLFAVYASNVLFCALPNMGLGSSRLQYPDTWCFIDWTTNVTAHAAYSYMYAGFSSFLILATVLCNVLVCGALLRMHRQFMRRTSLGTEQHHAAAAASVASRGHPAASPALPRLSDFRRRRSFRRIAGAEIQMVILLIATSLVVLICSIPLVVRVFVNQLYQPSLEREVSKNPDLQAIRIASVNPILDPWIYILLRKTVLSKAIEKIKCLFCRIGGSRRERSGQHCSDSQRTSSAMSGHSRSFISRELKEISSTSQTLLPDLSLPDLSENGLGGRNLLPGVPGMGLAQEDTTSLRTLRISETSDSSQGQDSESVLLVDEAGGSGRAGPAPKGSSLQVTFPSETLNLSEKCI
Summary of the method: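 Competitive HTRF cAMP read-out (cAMP-d2 vs Eu-cryptate anti-cAMP antibody, 665/620 nm ratio) on lysed human EP4 cells. Compound (0.8 nM–16.5 μM) applied 20 min at RT before 60 min PGE2 challenge (3× solution 0.3 nM, IBMX present); 20 min lysis precedes reading.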

[3] = target: EP2 subtype of the human PGE2 receptor (Homo sapiens, UniProt P43116); assay: cAMP antagonism test on the human EP2 receptor (HTRF cAMP detection); details: hEP2 receptor, read-out: Antagonism hEP2 IC50
EP2 subtype of the human PGE2 receptor, sequence (P43116 whole entry): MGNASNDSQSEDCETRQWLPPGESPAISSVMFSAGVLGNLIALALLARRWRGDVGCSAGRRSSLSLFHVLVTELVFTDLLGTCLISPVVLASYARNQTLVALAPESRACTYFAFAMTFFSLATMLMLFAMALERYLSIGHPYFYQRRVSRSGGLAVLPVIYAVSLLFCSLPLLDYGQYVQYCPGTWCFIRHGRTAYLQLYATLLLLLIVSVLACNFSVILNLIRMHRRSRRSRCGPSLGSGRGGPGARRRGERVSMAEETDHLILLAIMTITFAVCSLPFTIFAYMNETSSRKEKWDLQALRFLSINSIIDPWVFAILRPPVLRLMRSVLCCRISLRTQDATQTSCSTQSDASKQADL
Summary of the method: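 Read-out is a competitive HTRF for cAMP: lysate cAMP displaces cAMP-d2 from Eu cryptate-labelled antibody, and antagonism raises the 665/620 nm ratio. Compound (0.8 nM–16.5 μM) added to EP2 cells 20 min at RT before 60 min PGE2 challenge (3× stock 1.5 nM) with IBMX, followed by 20 min lysis.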

| Compound | Selectivity hEP2/hDP [1] | Selectivity hEP2/hEP4 [2] | IC50 [3] [nM] |
| --- | --- | --- | --- |
| COCCNC(=O)c1ccc2nn(CC3CCN(C(=O)c4ccc(C5CC5)cc4)CC3)cc2c1C [Example 20, 2-{[1-(4-cyclopropyl-benzoyl)piperidin-4-yl]methyl}-N-(2-methoxyethyl)-4-methyl-2H-indazol-5-carboxamide] | xxx (xxx > 100) | xxx (xxx > 100) | 7.33 |
| Cc1c(C(=O)NCCOC(C)C)ccc2nn(CC3CCN(C(=O)c4ccc(Cl)cc4)CC3)cc12 [Example 96, 2-{[1-(4-chlorobenzoyl)piperidin-4-yl]methyl}-N-(2-isopropoxyethyl)-4-methyl-2H-indazol-5-carboxamide] | xxx (xxx > 100) | xxx (xxx > 100) | 9.42 |
| COCCNC(=O)c1ccc2nn(CC3CCN(C(=O)c4ccc(OC5CCCC5)cc4)CC3)cc2c1C [Example 31, 2-({1-[4-(cyclo-pentyloxy)benzoyl]-piperidin-4-yl}-methyl)-N-(2-methoxyethyl)-4-methyl-2H-indazol-5-carboxamide] | xxx (xxx > 100) | xxx (xxx > 100) | 3.08 |
| Cc1cc2nn(CC3CCN(C(=O)c4cccc(OC(F)(F)F)c4)CC3)cc2cc1C(=O)NCCN1CCOCC1 [Example 76, 6-methyl-N-(2-morpholinoethyl)-2-({1-[3-(trifluorometh-oxy)benzoyl]piperidin-4-yl}methyl)-2H-indazol-5-carboxamide] | xx (xx: 10-100) | xx (xx: 10-100) | 179 |
| COCCNC(=O)c1ccc2nn(CC3CCN(C(=O)c4ccc(C)cc4)CC3)cc2c1C [Example 12, N-(2-methoxyethyl)-4-methyl-2-{[1-(4-methylbenzoyl)-piperidin-4-yl]-methyl)-2H-indazol-5-carboxamide] | xxx (xxx > 100) | xxx (xxx > 100) | 20.3 |
| Cc1c(C(=O)NCC2CCCCO2)ccc2nn(CC3CN(C(=O)c4ccc(Cl)cc4)C3)cc12 (single isomer, unassigned) [Example 146, (S or R)-2-{[1-(4-chlorobenzoyl)azetidin-3-yl]methyl}-4-methyl-N-(3,4,5,6-tetrahydro-2H-pyran-2-ylmethyl)-2H-indazol-5-carboxamide] | xxx (xxx > 100) | xxx (xxx > 100) | 52.6 |
| Cc1c(C(=O)NCCN2CCOCC2)ccc2nn(CC3CCN(C(=O)c4ccc(OC(F)(F)F)cc4)CC3)cc12 [Example 59, 4-methyl-N-(2-morpholinoethyl)-2-({1-[4-(trifluoromethoxy)benzoyl]piperidin-4-yl}methyl)-2H-indazol-5-carboxamide] | xx (xx: 10-100) | xx (xx: 10-100) | 758 |
| COCCNC(=O)c1ccc2nn(CC3CN(C(=O)c4ccc(-c5ccc(F)cc5)cc4)C3)cc2c1C [Example 158, 2-({1-[(4′-fluorobiphenyl-4-yl)carbonyl]azetidin-3-yl}methyl)-N-(2-methoxy-ethyl)-4-methyl-2H-indazol-5-carboxamide] | xxx (xxx > 100) | xxx (xxx > 100) | 6.21 |
| COCCNC(=O)c1ccc2nn(CC3CCN(C(=O)c4ccc(-c5ccno5)cc4)CC3)cc2c1C [Example 37, N-(2-methoxyethyl)-4-methyl-2-({1-[4-(isoxazol-5-yl)-benzoyl]piperidin-4-yl}methyl)-2H-indazol-5-carboxamide] | xxx (xxx > 100) | xxx (xxx > 100) | 104 |

The remaining lines, values ahead:

| Selectivity hEP2/hDP [1] | Selectivity hEP2/hEP4 [2] | IC50 [3] [nM] | Compound |
| --- | --- | --- | --- |
| xxx (xxx > 100) | xxx (xxx > 100) | 8.02 | COc1c(C(=O)NCCN2CCC(F)(F)C2)ccc2nn(CC3CN(C(=O)c4ccc(Cl)cc4)C3)cc12 [Example 260, 2-{[1-(4-chlorobenzoyl)azetidin-3-yl]methyl}-N-[2-(3,3-difluoropyrrolidin-1-yl)ethyl]-4-methoxy-2H-indazol-5-carboxamide] |
| xxx (xxx > 100) | xxx (xxx > 100) | 21.8 | COCCNC(=O)c1ccc2nn(CC3CCN(C(=O)c4ccc(-c5cccnc5)c(C)c4)CC3)cc2c1C [Example 392, N-(2-methoxyethyl)-4-methyl-2-({1-[3-methyl-4-(3-pyridyl)benzoyl]piperidin-4-yl}methyl)-2H-indazol-5-carboxamide] |
| xxx (xxx > 100) | xxx (xxx > 100) | 8.01 | COCCNC(=O)c1ccc2nn(CC3CCN(C(=O)c4ccc(Oc5ccc(F)cc5F)cc4)CC3)cc2c1C [Example 358, 2-({1-[4-(2,4-difluorophenoxy)benzoyl]piperidin-4-yl}methyl)-N-(2-methoxy-ethyl)-4-methyl-2H-indazol-5-carboxamide] |
| xx (xx: 10-100) | xx (xx: 10-100) | 226 | CCOc1c(C(=O)NCCOC)ccc2nn(CC3CN(C(=O)c4ccc(Cl)cc4)C3)cc12 [Example 276, 2-{[1-(4-chlorobenzoyl)azetidin-3-yl]methyl}-4-ethoxy-N-(2-methoxyethyl)-2H-indazol-5-carboxamide] |
| xxx (xxx > 100) | xxx (xxx > 100) | 106 | CCc1c(C(=O)NCCOC)ccc2nn(CC3CCN(C(=O)c4ccc(Cl)cc4)CC3)cc12 [Example 212, 2-{[1-(4-chlorobenzoyl)piperidin-4-yl]methyl}-4-ethyl-N-(2-methoxyethyl)-2H-indazol-5-carboxamide] |
| xxx (xxx > 100) | xxx (xxx > 100) | 30.3 | COCCNC(=O)c1cc2cn(CC3CCN(C(=O)c4ccc(Cl)cc4F)CC3)nc2cc1C [Example 207, 2-{[1-(4-chloro-2-fluorobenzoyl)piperidin-4-yl]methyl}-N-(2-methoxyethyl)-6-methyl-2H-indazol-5-carboxamide] |
| xxx (xxx > 100) | xxx (xxx > 100) | 10.9 | Cc1c(C(=O)NCC2COCCO2)ccc2nn(CC3CCN(C(=O)c4ccc(Oc5ccc(C(F)(F)F)cc5)cc4)CC3)cc12 (single isomer, unassigned) [Example 419, (R or S)—N-(1,4-dioxan-2-ylmethyl)-4-methyl-2-[(1-{4-[4-(trifluoromethyl)-phenoxy]benzoyl}piperidin-4-yl)methyl]-2H-indazol-5-carboxamide] |
| xxx (xxx > 100) | xxx (xxx > 100) | 5.09 | COCCNC(=O)c1ccc2nn(CC3CCN(C(=O)c4ccc(C5CCCCC5)cc4)CC3)cc2c1C [Example 335, 2-{[1-(4-cyclohexylbenzoyl)piperidin-4-yl]methyl}-N-(2-methoxyethyl)-4-methyl-2H-indazol-5-carboxamide] |
| xxx (xxx > 100) | xxx (xxx > 100) | 45.5 | COCCNC(=O)c1ccc2nn(CC3CCN(C(=O)c4ccc(C(F)(F)F)cc4F)CC3)cc2c1OC [Example 267, 2-({1-[2-fluoro-4-(trifluoromethyl)benzoyl]piperidin-4-yl}methyl)-4-methoxy-N-(2-methoxyethyl)-2H-indazol-5-carboxamide] |
| xxx (xxx > 100) | xxx (xxx > 100) | 20 | Cc1c(C(=O)NCC(F)(F)F)ccc2nn(CC3CCN(C(=O)c4cc5cc(F)ccc5n4C)CC3)cc12 [Example 292, 2-({1-[(5-fluoro-1-methyl-1H-indol-2-yl)carbonyl]piperidin-4-yl}methyl)-4-methyl-N-(2,2,2-trifluoroethyl)-2H-indazol-5-carboxamide] |
| xxx (xxx > 100) | xxx (xxx > 100) | 158 | Cc1c(C(=O)NCC(F)(F)F)ccc2nn(CC3CCN(C(=O)c4ccc(-c5ccc(C(F)(F)F)cn5)cc4)CC3)cc12 [Example 312, 4-methyl-N-(2,2,2-trifluoroethyl)-2-[(1-{4-[5-(trifluoromethyl)pyridin-2-yl]-benzoyl}piperidin-4-yl)methyl]-2H-indazol-5-carboxamide] |
| xxx (xxx > 100) | xxx (xxx > 100) | 9.75 | Cc1c(C(=O)NCC2CCCCO2)ccc2nn(CC3CCN(C(=O)c4ccc(Oc5ccc(C(F)(F)F)cc5)cc4)CC3)cc12 (single isomer, unassigned) [Example 417, (S or R)-4-methyl-N-(3,4,5,6-tetrahydro-2H-pyran-2-ylmethyl)-2-[(1-{4-[4-(trifluoromethyl)phenoxy]benzoyl}piperidin-4-yl)methyl]-2H-indazol-5-carboxamide] |
